Target: T1, hIBAT (Homo sapiens, UniProt Q12908)
T1 construct: expressed in transfected cells; kept under Puromycin selection
T1 sequence (Q12908 1-348): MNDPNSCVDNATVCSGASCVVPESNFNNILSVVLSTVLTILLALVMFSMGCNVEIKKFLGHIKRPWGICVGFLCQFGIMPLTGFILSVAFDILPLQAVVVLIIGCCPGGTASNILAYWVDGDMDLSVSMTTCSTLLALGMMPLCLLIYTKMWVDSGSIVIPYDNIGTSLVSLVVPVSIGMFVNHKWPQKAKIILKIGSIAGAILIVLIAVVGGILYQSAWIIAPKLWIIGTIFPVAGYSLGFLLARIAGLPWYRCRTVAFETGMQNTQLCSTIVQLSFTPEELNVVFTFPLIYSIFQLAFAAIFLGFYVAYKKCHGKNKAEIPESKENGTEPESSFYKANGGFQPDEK
Assay: IBAT (h/m) assay: 3H-taurocholic acid uptake in human IBAT-overexpressing cells
Type: cell-based
Details: 0.25 μM 3H-taurocholic acid + 5 μM cold taurocholic acid, 20 minutes at 37° C., highest test concentration 10 μM
In short: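 Human or mouse IBAT-overexpressing cells cultured 48 h, then exposed for 20 min at 37 °C to compounds (top 10 μM, 3-fold, 10 points; 0.2% DMSO) with 0.25 μM 3H-taurocholic acid plus 5 μM cold taurocholic acid. Uptake stopped on ice, cells washed with cold 1 mM taurocholic acid, radioactivity counted by scintillation.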

IC50 [nM]	Compound
0.7	CCCCC1(C)CN(c2ccccc2)c2cc(SC)c(CSCC(=O)O)cc2S(=O)(=O)C1 (single isomer, unassigned) [5, enantiomer 1]
0.4	CCCCC1(CC)CN(c2ccc(F)cc2)c2cc(SC)c(CSCC(=O)O)cc2S(=O)(=O)C1 (single isomer, unassigned) [7, enantiomer 1]
0.2	CCCCC1(CC)CN(c2ccccc2)c2cc(SC)c(CSCC(=O)O)cc2S(=O)(=O)C1 (single isomer, unassigned) [2, enantiomer 1]
